Assays:
[1] = test system: children with apraxia of speech; experiment: Speech and language assessment of children with apraxia of speech before and after a psychostimulant dose (case examples); assay type: in vivo, human
Source text: Assessment of the verbal ability of a subject can include but is not limited to measures of all the domains described herein: nonspeech oral-motor, speech production, prosody, voice, speech perception, language, and, for older children, linguistic/literacy skills. Of these, (a) inconsistent errors on consonants and vowels in repeated productions of syllables or words, (b) lengthened and disrupted coarticulatory transitions between sounds and syllables, (c) inappropriate prosody, especially in the realization of lexical or phrasal stress; (d) the inability to see a new word and to have the ability to identify and sequence in time and space the sounds not only by themselves but in relationship to one another to be able to produce to transform from a symbol, orthographic to sound representation but to do it according to the rules of language knowing where to divide the written symbols into units; (e) the inability to not only transform into sounds, but sounds in relationship in terms of speed and volume to have that word in the context have that meaning that the author of the written word wanted to convey. The cultural and linguistic background of each subject may optionally be assessed.
When treating a child who is incapable of communication, the child is tested with respect to language skills as well as visual-spatial comprehension skills. For example, a child may be asked to pronounce a few single syllable words, such as “ma, ma” “ba, ba” or to described a picture or read a few words. At the same time, the child's body motions and emotional interactions with other people are observed.
For example, an improvement in a subject may include but is not limited to, an increase in the number of correct phonemes when speaking, a more normal time spent enunciating words, the number of times the last consonant of a word is used correctly, the proper sequencing of words and events, appropriate sound intensity.
Depending where the patient is on the apraxia pyramid, for example vocalization, words, prosody, the number of words in the sentence, the number or types of words in the sentence, the grammar syntax, prosody, measuring the child to his/her previous ability 20-30 minutes ago in addition to medication.

[2] = test system: children with good nonverbal development not functioning well with reading and language skills; experiment: Three minute reading test before and after administering the medicine (FIG. 2 and FIG. 3); assay type: in vivo, human; settings: most of the nine children; 5 mg; pre- versus after administering
Method: FIG. 2 is a comparison of the reading abilities of a group of children with a various diagnosed symptoms between pre-treatment and after-treatment with one dosage of 5-7.5 mg of methylphenidate.
FIG. 3 is a comparison of the reading abilities of another group of children with a various diagnosed symptoms between pre-treatment and after-treatment with one dosage of 5-7.5 mg of methylphenidate.
Metrics for quantitative assessment of the language ability include words per minute, three minute reading test, sentence complexity such as length in words, complexity of construction, etc. The number of correctly read syllables minuses the number of mistakes divided by the months of reading training may be used to assess the language ability development.
In reference to FIG. 2 and FIG. 3. […] They were tested for three minute reading before and after administering the medicine. The mistakes in pronouncing syllables were counted. The correct pronunciation ratios (divided by the total number of syllables read) were compared between the pre-administering the drug and after administering the drug. […] Most of them had least 40% improvement.

In the case of `COC(=O)[C@H](c1ccccc1)[C@H]1CCCCN1` [Focalin®, dextro-threo-methylphenidate], the “speech and language (Example 9A, fifth visit)” value ([1]; Participant 9A, 10 mg/day after the methylphenidate regimen, about two weeks later) is reported as “able to answer questions about their daily life in clear speech and language” and the “speech and comprehension (Example 9B)” value ([1]; Participant 9B, same regimen as 9A (methylphenidate 5 then 10 mg/day, then Focalin 10 mg/day)) is reported as “an improvement in speech and comprehension”.

In the case of `COC(=O)C(c1ccccc1)C1CCCCN1` (centres unmarked) [methylphenidate], the “improvement of correct pronunciation ratio, three minute reading” value [2] is reported as no less than 40%, the “speech ability after dose (Example 1)” value ([1]; 11 year autistic boy, 10 mg tablets, thirty minutes after dose) is reported as “able to imitate “ma ma ma”” and the “speech improvement (Example 9A, third visit)” value ([1]; Participant 9A, 5 mg/day, after a month) is reported as “no significant improvement in speech”. The “comprehension (Example 9A, fourth visit)” value ([1]; Participant 9A, 10 mg/day, about a month later) was “able to understand the story line of a children's book”, the “reading ability after dose (Example 5)” value ([1]; child with dyslexia, 10 mg, half an hour later) was “able to read a sentence with smooth pronunciations” and the “speech ability after dose (Example 7)” value ([1]; child, chromosome 15 duplication, 2.5 mg, thirty minutes later) was “able to make sounds of “ma mi”, mimic “bye”, “bye” and babble with sounds”. The “speech and motor ability after dose (Example 8)” value ([1]; child, 5 mg, after 30 minutes) was “able to repeat two syllable words”, the “speech ability after dose (Example 2)” value ([1]; child, one dosage of 5 mg, half an hour later) was “able to follow instructions to mimic the sounds “ma” “ma” “ga” “ga”” and the “follow up on speech after repeated dosing (Example 7)” value ([1]; same child, 2.5 mg a day for two to three months) was “good progress in speaking sounds”.

Reference: patent US9375421B2, “Pharmaceutical intervention for treating an apraxia of speech in children” (Gilrose Pharmaceuticals, LLC, priority 2011, dated 2016)
